Measured values taken from the supplement of paper PMC11061612.

How the values were obtained:
[1] = system: NCI-H720 (Other Solid Carcinomas); test: combination Emax (second highest fraction inhibited in the dose matrix, 72 h); higher = more inhibition; extreme values may be limits of the assay
Summary of the method: (§1)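 Bliss excess equals the observed combination effect minus the expected value EA + EB − EA·EB, where EA and EB are the effects of each agent alone. Combination Emax is the second-highest inhibition within the matrix. Inhibition was scaled from CellTiter-Glo 2.0 luminescence, with 0 set by vehicle wells and 1 by blank wells, after 72 hours of two-drug dosing of cells plated in 1536-well plates.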

CHP-134 (Neuroblastoma) [2] = test: as above
Summary of the method: as §1

EW-11 (Ewing's Sarcoma) = test: Bliss excess, mean over the matrix (fraction); higher = more synergy
Summary of the method: as §1

[3] = system: MHH-CALL-2 (B-Lymphoblastic Leukemia); test: as above
Summary of the method: as §1

CAL-72 (Osteosarcoma) = test: as above
Summary of the method: as §1

KS-1 (Glioblastoma) = test: as above
Summary of the method: as §1

[4] = system: NCI-H720 (Other Solid Carcinomas); test: as above
Summary of the method: as §1

[5] = system: LS-123 (Colorectal Carcinoma); test: as above
Summary of the method: as §1

[6] = system: BE-13 (T-Lymphoblastic Leukemia); test: as above
Summary of the method: as §1

[7] = system: KYAE-1 (Esophageal Adenocarcinoma); test: as above
Summary of the method: as §1

[8] = system: ESS-1 (Other Solid Carcinomas); test: as above
Summary of the method: as §1

[9] = system: OE21 (Esophageal Squamous Cell Carcinoma); test: as above
Summary of the method: as §1

CHP-134 (Neuroblastoma) [10] = test: as above
Summary of the method: as §1

[11] = system: OV-56 (Ovarian Carcinoma); test: as above
Summary of the method: as §1

SMILES	combination Emax [1]	combination Emax (CHP-134 (Neuroblastoma) [2])	Bliss excess (EW-11 (Ewing's Sarcoma))	Bliss excess [3]	Bliss excess (CAL-72 (Osteosarcoma))	Bliss excess (KS-1 (Glioblastoma))	Bliss excess [4]	Bliss excess [5]	Bliss excess [6]	Bliss excess [7]	Bliss excess [8]	Bliss excess [9]	Bliss excess (CHP-134 (Neuroblastoma) [10])	Bliss excess [11]
CN(C)CCCOc1ccc(-c2ccc3ncc4c(c3c2)n(C2CCOCC2)c(=O)n4C)cn1 [AZD0156] + O=C(c1cc(Cc2n[nH]c(=O)c3ccccc23)ccc1F)N1CCN(C(=O)C2CC2)CC1 [Olaparib] (first compound max 3 µM, partner max 3 µM)	0.371	0.434	0.0995	0.106	0.0475	0.0259	0.0622	-0.0346	0.0894	0.0247	0.0655	-0.0006	0.174	-0.0449
C=CCn1c(=O)c2cnc(Nc3ccc(N4CCN(C)CC4)cc3)nc2n1-c1cccc(C(C)(C)O)n1 [AZD1775] + C1CN(CCC1(C(=O)N[C@@H](CCO)C2=CC=C(C=C2)Cl)N)C3=NC=NC4=C3C=CN4 [Capivasertib] (first compound max 3 µM, partner max 3 µM)	0.842	0.844	0.0203	0.029	0.0259	-0.0126	-0.0252	-0.0341	-0.0508	-0.0284	-0.0251	-0.0253	-0.0416	-0.0263
CCN(CCO)CCCOc1ccc2c(Nc3cc(CC(=O)Nc4cccc(F)c4)[nH]n3)ncnc2c1 [AZD2811] + C=CCn1c(=O)c2cnc(Nc3ccc(N4CCN(C)CC4)cc3)nc2n1-c1cccc(C(C)(C)O)n1 [AZD1775] (first compound max 1 µM, partner max 1 µM)	0.679	–	0.0003	–	-0.0866	0.0223	0.0326	-0.0373	-0.0298	-0.0176	0.042	-0.0577	–	-0.0152
CCN(CCO)CCCOc1ccc2c(Nc3cc(CC(=O)Nc4cccc(F)c4)[nH]n3)ncnc2c1 [AZD2811] + C[C@@H]1COCCN1C2=NC(=NC(=C2)C3(CC3)[S@](=N)(=O)C)C4=C5C=CNC5=NC=C4 [AZD6738] (first compound max 1 µM, 7x7, partner max 10 µM)	0.8	–	-0.0229	–	-0.0863	-0.0711	0.0033	-0.0258	-0.148	-0.0234	-0.018	-0.142	–	-0.11
CCN(CCO)CCCOc1ccc2c(Nc3cc(CC(=O)Nc4cccc(F)c4)[nH]n3)ncnc2c1 [AZD2811] + O=C(c1cc(Cc2n[nH]c(=O)c3ccccc23)ccc1F)N1CCN(C(=O)C2CC2)CC1 [Olaparib] (first compound max 1 µM, 7x7, partner max 10 µM)	0.561	–	0.0191	–	0.0343	0.0053	-0.0312	0.0144	-0.0163	0.0093	0.021	0.0043	–	-0.0081
C[C@@H]1COCCN1c1cc(C2([S@](C)(=N)=O)CC2)nc(-c2ccnc3[nH]ccc23)n1 [AZD6738] + O=C(c1cc(Cc2n[nH]c(=O)c3ccccc23)ccc1F)N1CCN(C(=O)C2CC2)CC1 [Olaparib] (first compound max 10 µM, 7x7, partner max 10 µM)	0.687	–	-0.014	–	-0.0183	0	-0.0398	0.0192	0.0278	-0.0082	0.0107	-0.007	–	-0.0159
COc1cccc2c1C(=O)c1c(O)c3c(c(O)c1C2=O)C[C@@](O)(C(=O)CO)C[C@@H]3O[C@H]1C[C@H](N)[C@H](O)[C@H](C)O1 [Doxorubicin] + Cc1cc2ncnn2cc1Nc1ncc2c(n1)n(C1CCOCC1)c(=O)n2C [AZD7648] (first compound max 1 µM, 7x7, partner max 10 µM)	0.478	–	0.0408	–	-0.0164	0.0176	0.0281	0.035	0.0553	0.0242	0.0112	0.0511	–	0.0345
COc1cccc(OCCCN)c1-c1cc(Nc2cnc(C#N)cn2)n[nH]1 [Prexasertib] + C=CCn1c(=O)c2cnc(Nc3ccc(N4CCN(C)CC4)cc3)nc2n1-c1cccc(C(C)(C)O)n1 [AZD1775] (first compound max 1 µM, partner max 1 µM)	0.692	–	-0.0815	–	0.0055	-0.0244	0.107	-0.0296	0.0317	0.103	0.0299	-0.0663	–	-0.0015
COc1cccc(OCCCN)c1-c1cc(Nc2cnc(C#N)cn2)n[nH]1 [Prexasertib] + CCc1c2c(nc3ccc(O)cc13)-c1cc3c(c(=O)n1C2)COC(=O)[C@]3(O)CC [SN-38] (first compound max 1 µM, 7x7, partner max 0.3 µM)	0.886	–	-0.153	0.0227	-0.0158	-0.0848	0.197	0.0186	0.0072	0.102	-0.0183	-0.0509	–	0.009
COc1cccc(OCCCN)c1-c1cc(Nc2cnc(C#N)cn2)n[nH]1 [Prexasertib] + CN(C)CCCOc1ccc(-c2ccc3ncc4c(c3c2)n(C2CCOCC2)c(=O)n4C)cn1 [AZD0156] (first compound max 1 µM, 7x7, partner max 1 µM)	0.562	–	-0.0705	–	-0.0922	-0.0131	0.0149	-0.0387	-0.0338	0.0184	-0.0668	-0.0949	–	-0.0442
COc1cccc(OCCCN)c1-c1cc(Nc2cnc(C#N)cn2)n[nH]1 [Prexasertib] + C[C@@H]1COCCN1C2=NC(=NC(=C2)C3(CC3)[S@](=N)(=O)C)C4=C5C=CNC5=NC=C4 [AZD6738] (first compound max 1 µM, 7x7, partner max 10 µM)	0.697	–	0.0197	–	-0.0244	-0.0298	-0.0325	-0.0242	-0.0018	0.0651	0.0056	0.0084	–	0.0148
COc1cccc(OCCCN)c1-c1cc(Nc2cnc(C#N)cn2)n[nH]1 [Prexasertib] + Cc1cc2ncnn2cc1Nc1ncc2c(n1)n(C1CCOCC1)c(=O)n2C [AZD7648] (first compound max 1 µM, 7x7, partner max 10 µM)	0.746	–	-0.0303	–	-0.112	0.0198	0.0515	-0.0141	0.0364	0.0382	-0.0296	-0.0116	–	-0.0467
COc1cccc(OCCCN)c1-c1cc(Nc2cnc(C#N)cn2)n[nH]1 [Prexasertib] + O=C(c1cc(Cc2n[nH]c(=O)c3ccccc23)ccc1F)N1CCN(C(=O)C2CC2)CC1 [Olaparib] (first compound max 1 µM, 7x7, partner max 10 µM)	0.64	–	-0.0849	–	-0.135	-0.0439	0.0208	-0.0312	-0.0341	0.0116	0.0054	-0.0499	–	-0.0739
CCc1c2c(nc3ccc(O)cc13)-c1cc3c(c(=O)n1C2)COC(=O)[C@]3(O)CC [SN-38] + CN(C)CCCOc1ccc(-c2ccc3ncc4c(c3c2)n(C2CCOCC2)c(=O)n4C)cn1 [AZD0156] (first compound max 0.3 µM, 7x7, partner max 1 µM)	0.397	–	-0.012	–	0.0114	-0.0369	0.035	-0.0648	-0.103	-0.0188	0.0109	-0.0243	–	0.0154
